Experiments:
[1] = Plasma exposure and brain penetration after single oral dose; assay type: in vivo, mice; conditions: male; for AUC(0-inf) / AUC(0-t): CD-1, mouse; for AUC(0-t): tlast 8 h; for Cmax: mouse, CD-1 mice
Method: Plasma and brain exposures of SAR218645 in male CD-1 mice (25–30 g at arrival) were measured after single oral doses of 1, 3 and 10 mg/kg. Mouse plasma samples (25.0 μl) were transferred into micro-centrifuge tubes (1.7 ml) and mixed with 50 μl of Internal Standard solution (500 ng/ml in acetonitrile). The tubes were vortex mixed for 1 min and centrifuged at 10,000 g for 5 min. An aliquot of the supernatant (50 μl) was transferred into an autosampler vial and mixed with 100 μl of water for LC/MS/MS analysis. Each mouse brain was first homogenized with 3.0 ml of 25% acetonitrile in water. The tissue homogenates (50.0 μl) were transferred into micro-centrifuge tubes (1.7 ml) and mixed with 100 μl of Internal Standard solution (500 ng/ml of A000597492 in acetonitrile). The tubes were vortex mixed for 1 min and centrifuged at 10,000 g for 5 min. An aliquot of the supernatant (50 μl) was transferred into an autosampler vial and mixed with 100 μl of water for LC/MS/MS analysis. The lower limits of quantitation (LLOQ) for SAR218645 were 0.500 ng/ml for plasma and 0.100 ng/ml for brain homogenate. The calibration curves were linear in the above prepared concentration ranges. The LLOQ for brain tissue was estimated to be approximately 0.80 ng/g. The pharmacokinetic parameters were calculated from the arithmetic mean of the group sample concentrations using the program WinNonLin 5.2., non-compartment model 200 for the extravascular routes.

human mGluR2 = human mGluR2 (Homo sapiens, UniProt Q14416); test: Multispan Allosteric Profiling panel, Ca2+ (Gqi5), control experiment; assay type: cell-based; conditions: increasing concentrations of SAR218645; Gqi5 cells
[2] = system: approximately 180 different receptors, ion channels, enzymes, transporters and kinases; test: In vitro selectivity profile (CEREP and internal panels); assay type: binding; conditions: up to 10 μM
Method: The effect of SAR218645 on approximately 180 different receptors, ion channels, enzymes, transporters and kinases (see Supplementary Material Table S1) was evaluated at a contract research organization (CEREP, Celle L’Evescault, France) using established protocols or through internal studies.

Swiss mice = test: Amphetamine-induced locomotor hyperactivity; assay type: in vivo
Method: An actimeter device consisting of a cylinder (20 cm diameter, 9.5 cm height, Apelex, France) equipped with two perpendicular light beams located 1.5 cm above the floor was used. Mice from the transgenic batches (DAT^−/− and NMDA Nr1^neo−/−) were orally pretreated with either SAR218645 or vehicle and individually isolated in boxes for a period of 60 min. Animals were then placed in the actimeter device and locomotor activity (number of interrupted light beams) was recorded for a period of 30 or 60 min. Mice in which the expression of the dopamine transporter (DAT) was knocked out (i.e., the DAT^−/− mouse) have been proposed as a reliable model of the positive symptoms of schizophrenia. In these mice, dopamine levels in the synapse are dramatically elevated and these animals are hyperactive and agitated in behavioral tests. […] Immediately following amphetamine challenge, 30 min after MK-801 challenge, mice were placed in the actimeter devices and locomotor activity was recorded for a period of 30 (DAT^−/−) or 60 (NMDA Nr1^neo−/−) min.
Statistical analyses were performed using SAS V8.2 software (SAS Institute, Cary, NC, USA). The number of light beam breaks (motility count) recorded for 30 or 60 min were analyzed using one-way ANOVAs using a fixed factor of challenge or genotype and complementary post hoc (Newman-Keuls) tests were performed. […]

human mGluR2, sequence (Q14416 19-872): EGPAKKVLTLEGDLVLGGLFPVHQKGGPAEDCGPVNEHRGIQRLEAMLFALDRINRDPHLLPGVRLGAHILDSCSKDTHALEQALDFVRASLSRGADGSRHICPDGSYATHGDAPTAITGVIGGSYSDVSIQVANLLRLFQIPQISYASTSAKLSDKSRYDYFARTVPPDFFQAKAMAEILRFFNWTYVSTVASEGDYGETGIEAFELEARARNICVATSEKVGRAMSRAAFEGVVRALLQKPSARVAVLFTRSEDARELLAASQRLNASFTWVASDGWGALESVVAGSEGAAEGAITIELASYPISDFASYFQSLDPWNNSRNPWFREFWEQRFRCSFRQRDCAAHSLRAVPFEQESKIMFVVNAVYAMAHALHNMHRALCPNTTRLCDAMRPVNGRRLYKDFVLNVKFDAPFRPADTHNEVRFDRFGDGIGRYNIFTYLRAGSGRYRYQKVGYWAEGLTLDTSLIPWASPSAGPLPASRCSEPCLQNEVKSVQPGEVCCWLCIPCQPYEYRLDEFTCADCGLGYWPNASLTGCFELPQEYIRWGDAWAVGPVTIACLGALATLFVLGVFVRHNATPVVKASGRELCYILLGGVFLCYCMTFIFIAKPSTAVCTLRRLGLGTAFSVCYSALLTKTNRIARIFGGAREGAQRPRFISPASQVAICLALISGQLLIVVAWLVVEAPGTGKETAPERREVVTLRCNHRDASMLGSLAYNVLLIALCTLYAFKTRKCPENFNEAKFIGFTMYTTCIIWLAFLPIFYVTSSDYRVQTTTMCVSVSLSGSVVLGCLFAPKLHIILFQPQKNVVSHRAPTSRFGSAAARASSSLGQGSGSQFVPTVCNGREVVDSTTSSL

Question: Which results are given for CC1(C)CCc2cc(OC[C@@H]3Cn4ccc(=O)nc4O3)ccc21 [SAR218645, (S)-2-(1,1-dimethyl-indan-5-yloxymethyl)-2,3-dihydro-oxazolo[3,2-a]pyrimidin-7-one]?
Answer: AUC(0-inf) ([1]; plasma, 1 mg/kg oral): 230 ng·h/mL; AUC(0-t) ([1]; plasma, 1 mg/kg oral): 230 ng·h/mL; AUC(0-inf) ([1]; plasma, 3 mg/kg oral): 540 ng·h/mL; AUC(0-t) ([1]; plasma, 3 mg/kg oral): 540 ng·h/mL; AUC(0-inf) ([1]; plasma, 10 mg/kg oral): 2400 ng·h/mL; AUC(0-t) ([1]; plasma, 10 mg/kg oral): 2300 ng·h/mL; Cmax ([1]; brain, 1 mg/kg oral): 32 ng/g; Cmax ([1]; brain, 3 mg/kg oral): 103 ng/g; Cmax ([1]; brain, 10 mg/kg oral): 339 ng/g; Cmax ([1]; plasma, 1 mg/kg oral): 131 ng/mL; Cmax ([1]; plasma, 3 mg/kg oral): 434 ng/mL; Cmax ([1]; plasma, 10 mg/kg oral): 1080 ng/mL; effect on glutamate response (human mGluR2): leftward shift; inhibition of radioligand binding, panel [2]: no interaction; effect on locomotor activity (Swiss mice; amphetamine 2 mg/kg ip, SAR218645 po): no effects; Minimal active dose (Swiss mice; dose-range 0.1–10, po, Swiss mice): >10 mg/kg

From publication PMC5062470, “The mGluR2 positive allosteric modulator, SAR218645, improves memory and attention deficits in translational models of cognitive symptoms associated with schizophrenia” (Scientific Reports, 2016)
